Results as given in PubChem BioAssay (NCI).
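Grown in 96-well plates, cells were treated for 48 hours with each compound at five concentrations. Insufficient inhibition: endpoint recorded as highest concentration tested. Here, GI50 denotes the concentration required for 50% inhibition of growth. Definition used: TGI = concentration required for complete inhibition of growth.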

Experiments:
Test in all cases: inhibition of tumour cell growth, NCI panel, 48 h
[1] = tested on: HOP-62 NSCLC
[2] = tested on: SF-268 CNS
[3] = tested on: HT29 colon
[4] = tested on: OVCAR-4 ovarian
[5] = tested on: NCI-H522 lung
[6] = tested on: OVCAR-5 ovarian
[7] = tested on: M14 melanoma
[8] = tested on: NCI-H23 lung
[9] = tested on: SW-620 colon
[10] = tested on: UACC-62 melanoma

Structure (SMILES) | GI50 [1] | TGI [1] | GI50 [2] | TGI [2] | GI50 [3] | TGI [3] | GI50 [4] | TGI [4] | GI50 [5] | TGI [5] | GI50 [6] | TGI [6] | GI50 [7] | TGI [7] | GI50 [8] | TGI [8] | GI50 [9] | TGI [9] | GI50 [10] | TGI [10]
N#Cc1nn(-c2cc(=O)[nH]c3ccc(Cl)cc23)c(N)c1C#N | > 100 µM | > 100 µM | > 100 µM | > 100 µM | > 100 µM | > 100 µM | 8.63 µM | > 100 µM | > 100 µM | > 100 µM | > 100 µM | > 100 µM | > 100 µM | > 100 µM | > 100 µM | > 100 µM | > 100 µM | > 100 µM | > 100 µM | > 100 µM
CCN1CCN(c2cc(C)c3cc(NC(=O)c4ccc(OC)c(OC)c4)ccc3n2)CC1 | > 37 µM | > 57.7 µM | 9.19 µM | > 75.1 µM | 1.31 µM | > 100 µM | 11 µM | > 100 µM | 0.485 µM | 16.9 µM | 15.7 µM | > 100 µM | 8.88 µM | > 100 µM | 50.5 µM | > 100 µM | 4.21 µM | > 42.3 µM | > 39.4 µM | > 64.8 µM
O=C1CCC2(c3ccc(Cl)cc3)Nc3cc(Cl)ccc3N12 (configuration not stated) | – | 29.2 µM | – | 25.8 µM | – | 25.2 µM | – | 23.1 µM | – | 22.6 µM | – | – | – | 28.7 µM | – | 23.2 µM | – | 19.6 µM | – | 21.2 µM
Cc1nc(Nc2ccc(Cl)cc2)sc1C(=O)NNC(=S)NN | – | 33 µM | – | 48.5 µM | – | – | – | 32.7 µM | – | 34.8 µM | – | 31.4 µM | – | 35.1 µM | – | 33.4 µM | – | 38.1 µM | – | 33.7 µM
NC1CCN(Cc2ccccc2)CC1 | – | – | > 100 µM | > 100 µM | > 100 µM | > 100 µM | > 100 µM | > 100 µM | > 100 µM | > 100 µM | > 100 µM | > 100 µM | > 100 µM | > 100 µM | > 100 µM | > 100 µM | > 100 µM | > 100 µM | > 100 µM | > 100 µM
COC(=O)/C(=C/c1ccc(OC)cc1)C(C(=O)O)=C1CCCC1 | – | > 100 µM | – | – | – | > 100 µM | – | > 100 µM | – | > 100 µM | – | > 100 µM | – | > 100 µM | – | > 100 µM | – | > 100 µM | – | > 100 µM
CSc1nc(SC)c2c(C#N)[nH]nc2n1 | – | > 100 µM | – | > 100 µM | – | > 100 µM | – | > 100 µM | – | > 100 µM | – | – | – | > 100 µM | – | > 100 µM | – | > 100 µM | – | > 100 µM
COc1cc(N=Nc2ccc(O)c3ncccc23)c2ncccc2c1 | – | – | 2.81 µM | > 100 µM | 6.65 µM | > 100 µM | 1.68 µM | > 100 µM | 4.26 µM | > 100 µM | 7.3 µM | > 100 µM | 2.66 µM | > 100 µM | 3.75 µM | > 100 µM | 3.86 µM | > 100 µM | 2.4 µM | 7.68 µM
COc1ccc(-c2nnc3n(C)c(=O)c4ccccc4n23)cc1N | 0.0482 µM | > 100 µM | 7.17 µM | > 100 µM | 0.0432 µM | > 100 µM | 16.3 µM | > 100 µM | 0.0306 µM | 42.6 µM | 9.26 µM | > 100 µM | 0.0475 µM | > 100 µM | 5.28 µM | > 100 µM | 0.0523 µM | > 100 µM | – | –
CC1(C)COC(c2cccc3c2C(=O)c2cccc(Cl)c2-3)=N1 | – | – | – | > 100 µM | – | > 100 µM | – | > 100 µM | – | > 100 µM | – | > 100 µM | – | > 100 µM | – | > 100 µM | – | > 100 µM | – | > 100 µM
O=C(Nc1cccc(C(F)(F)F)c1)c1ccc(NC2=C(Cl)C(=O)N(Cc3ccc(Cl)cc3Cl)C2=O)cc1 | 18 µM | 32.2 µM | 11 µM | 35.5 µM | 3.82 µM | 36.8 µM | 11.1 µM | 42.6 µM | 3.34 µM | 10.2 µM | – | – | 15.3 µM | 32.4 µM | – | – | 2.12 µM | 6.05 µM | 13.7 µM | 26.6 µM
C/C(CC(=O)Nc1ccc(C)c(C)c1)=N\N(c1ccccc1)c1ccccc1 | – | > 100 µM | – | > 100 µM | – | > 100 µM | – | > 100 µM | – | 29.7 µM | – | > 100 µM | – | > 100 µM | – | > 100 µM | – | – | – | 57.4 µM
NC(N)=N/N=C/c1c(Cl)cccc1Cl | 30.9 µM | > 100 µM | 23.9 µM | 89.4 µM | 17 µM | 43.4 µM | 25.3 µM | > 100 µM | 25.8 µM | 77.2 µM | 22.4 µM | 79.8 µM | – | – | 36.5 µM | > 100 µM | 15.8 µM | 30.6 µM | 18 µM | 37.3 µM
